From ChEMBL document CHEMBL1146189, “Antiproliferation and apoptosis induced by C-glycosides in human leukemia cancer cells” (Bioorg Med Chem Lett, 2006)
Activity calls are given as the source filed them. The calls are words filed in the database; no cut-off is given here.

Key:
HL-60 [1] = assay: Antiproliferative activity against human HL60 cells by MTT assay; format: functional, cell-based
HL-60 [2] = assay: Induction of apoptosis in human HL60 cells; format: functional, cell-based
[3] = Homo sapiens, HL-60, read-out: IC50

SMILES	IC50 (HL-60 [1]; [3]) [µM]	IC50 (HL-60 [1]; hl-60)	Activity (HL-60 [2])
C=CC[C@@H]1O[C@H](COCc2ccccc2)[C@@H](OCc2ccccc2)[C@H](OCc2ccccc2)C1=O	31.8		
CC(=O)OC[C@H]1O[C@@H](Cc2ccccc2)[C@H](OC(C)=O)[C@@H](OC(C)=O)[C@@H]1OC(C)=O		Not Active	
CCCCC[C@@H]1O[C@H](COCc2ccccc2)[C@@H](OCc2ccccc2)[C@H](OCc2ccccc2)[C@H]1O		Not Active	
CCC[C@@H]1O[C@H](CO)[C@@H](O)[C@H](O)[C@H]1O		Not Active	
CCC[C@H]1O[C@H](COCc2ccccc2)[C@@H](OCc2ccccc2)[C@H](OCc2ccccc2)[C@H]1O	28.2		
OC[C@H]1O[C@@H](Cc2ccccc2)[C@H](O)[C@@H](O)[C@@H]1O		Not Active	
C#CC[C@@H]1O[C@H](COCc2ccccc2)[C@@H](OCc2ccccc2)[C@H](OCc2ccccc2)[C@H]1O		Not Active	
CC(C)C[C@H]1O[C@H](COCc2ccccc2)[C@@H](OCc2ccccc2)[C@H](OCc2ccccc2)[C@H]1O	13.9		
CCC[C@H]1O[C@H](COCc2ccccc2)[C@H](OCc2ccccc2)[C@H](OCc2ccccc2)[C@H]1O		Not Active	
CCCCOC[C@H]1O[C@@H](CCC)[C@H](O)[C@@H](OCCCC)[C@@H]1OCCCC		Not Active	
O[C@@H]1[C@@H](OCc2ccccc2)[C@H](OCc2ccccc2)[C@@H](COCc2ccccc2)O[C@H]1CC1CC1		Not Active	
C=CC[C@@H]1O[C@H](COCc2ccccc2)[C@@H](OCc2ccccc2)[C@H](OCc2ccccc2)[C@H]1OC(C)=O	26.9		
C=C[C@H]1O[C@H](COCc2ccccc2)[C@@H](OCc2ccccc2)[C@H](OCc2ccccc2)[C@H]1OC(C)=O		Not Active	
O[C@@H]1[C@@H](O)[C@H](Cc2ccccc2)O[C@H](COCc2ccccc2)[C@H]1OCc1ccccc1	26.6		
CC(C)C[C@@H]1O[C@H](COCc2ccccc2)[C@H](OCc2ccccc2)[C@H](OCc2ccccc2)[C@H]1O		Not Active	
CC(=O)OC[C@@H]1O[C@H](COCc2ccccc2)[C@@H](OCc2ccccc2)[C@H](OCc2ccccc2)[C@H]1OC(C)=O		Not Active	
C=C[C@H]1O[C@H](COCc2ccccc2)[C@@H](OCc2ccccc2)[C@H](OCc2ccccc2)[C@H]1O		Not Active	
C=CC[C@@H]1O[C@H](COCc2ccccc2)[C@@H](OCc2ccccc2)[C@H](OCc2ccccc2)C1O (single isomer, unassigned)		Not Active	
O[C@@H]1[C@@H](OCc2ccccc2)[C@H](OCc2ccccc2)[C@@H](COCc2ccccc2)O[C@H]1CC1CCCCC1	4.1		
CC1(C)OC[C@@H]2O[C@H](COCc3ccccc3)[C@@H](OCc3ccccc3)[C@H](OCc3ccccc3)[C@H]2O1	12.5		Active
CC[C@@H]1O[C@H](COCc2ccccc2)[C@@H](OCc2ccccc2)[C@H](OCc2ccccc2)[C@H]1O	8.2		Active
CC(=O)O[C@@H]1[C@@H](OCc2ccccc2)[C@H](OCc2ccccc2)[C@@H](COCc2ccccc2)O[C@H]1Cc1ccccc1		Not Active	

SMILES	IC50 (HL-60 [1]; [3]) [µM]	IC50 (HL-60 [1]; hl-60)	Activity (HL-60 [2])
OC[C@H]1O[C@@H](Cc2ccccc2)[C@H](O)[C@@H](O)[C@@H]1OCc1ccccc1		Not Active	
CCC[C@@H]1O[C@H](COCc2ccccc2)[C@@H](OCc2ccccc2)[C@H](OCc2ccccc2)[C@H]1O	11.7		
CCCC[C@@H]1O[C@H](COCc2ccccc2)[C@@H](OCc2ccccc2)[C@H](OCc2ccccc2)[C@H]1O		Not Active	
c1ccc(COC[C@H]2O[C@@H]3C[C@@H]3[C@@H](OCc3ccccc3)[C@@H]2OCc2ccccc2)cc1	38.5		
CCC[C@@H]1O[C@H](COC)[C@@H](OC)[C@H](OC)[C@H]1O		Not Active	
O[C@@H]1[C@@H](OCc2ccccc2)[C@H](OCc2ccccc2)[C@@H](COCc2ccccc2)O[C@@]12CCCO2		Not Active	
O[C@@H]1[C@@H](OCc2ccccc2)[C@H](O)[C@@H](COCc2ccccc2)O[C@H]1Cc1ccccc1	35.3		
CC(C)(C)C[C@@H]1O[C@H](COCc2ccccc2)[C@@H](OCc2ccccc2)[C@H](OCc2ccccc2)[C@H]1O		Not Active	
O[C@@H]1[C@@H](OCc2ccccc2)[C@H](OCc2ccccc2)[C@@H](COCc2ccccc2)O[C@H]1c1ccccc1	26.3		
O[C@@H]1[C@@H](OCc2ccccc2)[C@H](OCc2ccccc2)[C@@H](COCc2ccccc2)O[C@@H]1CC1CCCCC1	17.2		
CCC[C@H]1O[C@H](COCc2ccccc2)[C@@H](OCc2ccccc2)[C@H](OCc2ccccc2)[C@@H]1O		Not Active	
O[C@@H]1[C@@H](OCc2ccccc2)[C@H](OCc2ccccc2)[C@@H](COCc2ccccc2)O[C@@H]1c1ccccc1		Not Active	
CC(C)(C)C[C@H]1O[C@H](COCc2ccccc2)[C@@H](OCc2ccccc2)[C@H](OCc2ccccc2)[C@H]1O	12.1		
CC[C@H]1O[C@H](COCc2ccccc2)[C@@H](OCc2ccccc2)[C@H](OCc2ccccc2)[C@H]1O		Not Active	
C=CC[C@@H]1O[C@H](CO)[C@@H](O)[C@H](O)[C@H]1O		Not Active	
c1ccc(COC[C@H]2OCC[C@@H](OCc3ccccc3)[C@@H]2OCc2ccccc2)cc1	39.3		
CC(C)C[C@H]1O[C@H](COCc2ccccc2)[C@H](OCc2ccccc2)[C@H](OCc2ccccc2)[C@H]1O		Not Active	
OCCC[C@@H]1O[C@H](COCc2ccccc2)[C@@H](OCc2ccccc2)[C@H](OCc2ccccc2)[C@H]1O	19.3		
O[C@@H]1[C@@H](OCc2ccccc2)[C@H](OCc2ccccc2)[C@@H](COCc2ccccc2)O[C@]12CCCO2		Not Active	
C[C@@H]1O[C@H](COCc2ccccc2)[C@@H](OCc2ccccc2)[C@H](OCc2ccccc2)[C@H]1O	8.4		
OC[C@H]1O[C@@H](Cc2ccccc2)[C@H](O)[C@@H](OCc2ccccc2)[C@@H]1O		Not Active	
CCCCCCCCCCCCCCCOC[C@H]1O[C@@H](CCC)[C@H](O)[C@@H](OCCCCCCCCCCCCCCC)[C@@H]1OCCCCCCCCCCCCCCC		Not Active	

SMILES	IC50 (HL-60 [1]; [3]) [µM]	IC50 (HL-60 [1]; hl-60)	Activity (HL-60 [2])
CC(=O)O[C@@H]1[C@@H](OCc2ccccc2)[C@H](OCc2ccccc2)[C@@H](COCc2ccccc2)O[C@@H]1Cc1ccccc1		Not Active	
O[C@@H]1[C@@H](OCc2ccccc2)[C@H](OCc2ccccc2)[C@@H](COCc2ccccc2)O[C@@H]1Cc1ccccc1		Not Active	
O[C@H]1CO[C@H](COCc2ccccc2)[C@@H](OCc2ccccc2)[C@@H]1OCc1ccccc1		Not Active	
CCC[C@@H]1O[C@H](COCc2ccccc2)[C@H](OCc2ccccc2)[C@H](OCc2ccccc2)[C@H]1O		Not Active	
OC[C@H]1O[C@@H](Cc2ccccc2)[C@H](O)[C@@H](OCc2ccccc2)[C@@H]1OCc1ccccc1	20.2		
CC(=O)OC[C@@H]1O[C@H](COCc2ccccc2)[C@@H](OCc2ccccc2)[C@H](OCc2ccccc2)[C@H]1OCc1ccccc1		Not Active	
O[C@@H]1[C@@H](OCc2ccccc2)[C@H](OCc2ccccc2)[C@@H](COCc2ccccc2)O[C@H]1Cc1ccccc1	8.7		
CCCC[C@H]1O[C@H](COCc2ccccc2)[C@@H](OCc2ccccc2)[C@H](OCc2ccccc2)[C@H]1O		Not Active	
CCC[C@@H]1O[C@H](COCc2ccccc2)[C@@H](OCc2ccccc2)[C@H](OCc2ccccc2)[C@@H]1O		Not Active	
CC(C)C[C@@H]1O[C@H](COCc2ccccc2)[C@@H](OCc2ccccc2)[C@H](OCc2ccccc2)[C@H]1O	8.5		Active
C[C@H]1O[C@H](COCc2ccccc2)[C@@H](OCc2ccccc2)[C@H](OCc2ccccc2)[C@H]1O		Not Active	
C=CC[C@@H]1O[C@H](COCc2ccccc2)[C@@H](OCc2ccccc2)[C@H](OCc2ccccc2)[C@H]1O	15.1		Active
CC(C)C[C@H]1O[C@H](COCc2ccccc2)[C@@H](OCc2ccccc2)[C@H](OCc2ccccc2)[C@@H]1O		Not Active	
C=C[C@@H]1O[C@H](COCc2ccccc2)[C@@H](OCc2ccccc2)[C@H](OCc2ccccc2)[C@H]1O	11.8		
ClC1(Cl)[C@@H]2[C@@H](OCc3ccccc3)[C@H](OCc3ccccc3)[C@@H](COCc3ccccc3)O[C@@H]21	46.4		
CC(C)C[C@@H]1O[C@H](COCc2ccccc2)[C@@H](OCc2ccccc2)[C@H](OCc2ccccc2)[C@@H]1O		Not Active	
CCCCCCCCCCCCCCCOC[C@H]1O[C@H](CCC)[C@H](O)[C@@H](OCCCCCCCCCCCCCCC)[C@@H]1OCCCCCCCCCCCCCCC		Not Active	
C=CC[C@@H]1O[C@H](COC(C)=O)[C@@H](OC(C)=O)[C@H](OC(C)=O)[C@H]1OC(C)=O		Not Active	
O[C@@H]1[C@@H](O)[C@H](Cc2ccccc2)O[C@H](COCc2ccccc2)[C@H]1O		Not Active	
c1ccc(COC[C@H]2O[C@H]3C[C@H]3[C@@H](OCc3ccccc3)[C@@H]2OCc2ccccc2)cc1		Not Active	
